The text below walks through data of ChEMBL document CHEMBL1641398, “Norlignans, acylphloroglucinols, and a dimeric xanthone from Hypericum chinense” (2010).

≈ marks a conversion by molar mass, not a printed value.

Holding throughout (format): functional
In assay [1] the test system is Staphylococcus aureus. As to the kind of experiment: Antibacterial activity against multi drug-resistant Staphylococcus aureus 1199B after 18 hrs by MTT assay. (In general: Formazan colour is commonly taken as a measure of viable cells.)
Assay [2] deals with Staphylococcus aureus. Nature of the assay: Antibacterial activity against multi drug-resistant Staphylococcus aureus XU212 after 18 hrs by MTT assay. The conditions noted are these: XU212, 18 h.
For assay [3], the system named is Staphylococcus aureus. As to the kind of experiment: Antibacterial activity against Staphylococcus aureus ATCC […] after 18 hrs by MTT assay.
In assay [4] the test system is Staphylococcus aureus. As to the kind of experiment: Antibacterial activity against erythromycin-resistant Staphylococcus aureus RN4220 after 18 hrs by MTT assay. The conditions noted are these: RN4220, 18 h.
Assay [5] deals with Staphylococcus aureus. As to the kind of experiment: Antibacterial activity against epidemic methicillin-resistant Staphylococcus aureus 15 after 18 hrs by MTT assay. The conditions noted are these: Staphylococcus aureus, 15, 18 h.
The subject of assay [6] is Staphylococcus aureus. Nature of the assay: Antibacterial activity against epidemic methicillin-resistant Staphylococcus aureus 16 after 18 hrs by MTT assay. The conditions noted are these: Staphylococcus aureus, 16, 18 h.

For orientation: MIC means the smallest concentration in the dilution series that meets the test's criterion for growth inhibition. A lower MIC goes with inhibition by little substance.

As for `COc1cc(O)c(C(=O)CC(C)C)c(O)c1C` [ASPIDINOL C], the MIC with Staphylococcus aureus [1] amounted to 2 µg/mL (≈ 8.39 µM); in the assay on Staphylococcus aureus [2] it was 32 µg/mL (≈ 134 µM); against Staphylococcus aureus [3], 8 µg/mL (≈ 33.6 µM); with Staphylococcus aureus [4], 16 µg/mL (≈ 67.1 µM); in the assay on Staphylococcus aureus [5], 8 µg/mL (≈ 33.6 µM); against Staphylococcus aureus [6] it was 4 µg/mL (≈ 16.8 µM).
For the compound `CCn1cc(C(=O)O)c(=O)c2cc(F)c(N3CCNCC3)cc21` [NORFLOXACIN], the MIC is 32 µg/mL (≈ 100 µM) in the assay on Staphylococcus aureus [1]; 8 µg/mL (≈ 25.1 µM) against Staphylococcus aureus [2]; 0.5 µg/mL (≈ 1.57 µM) in the assay on Staphylococcus aureus [3]; 0.5 µg/mL (≈ 1.57 µM) with Staphylococcus aureus [4]; 0.5 µg/mL (≈ 1.57 µM) against Staphylococcus aureus [5]; 128 µg/mL (≈ 401 µM) in the assay on Staphylococcus aureus [6].
As to `CCC(C)C(=O)c1c(O)cc(OC)c(C)c1O` (stereo not drawn) [ASPIDINOL D], the MIC in the assay on Staphylococcus aureus [1] is 4 µg/mL (≈ 16.8 µM); in the assay on Staphylococcus aureus [2] it was 8 µg/mL (≈ 33.6 µM); in the assay on Staphylococcus aureus [3] it was 8 µg/mL (≈ 33.6 µM); in the assay with Staphylococcus aureus [4] it was 8 µg/mL (≈ 33.6 µM); in the assay on Staphylococcus aureus [5] it was 4 µg/mL (≈ 16.8 µM); in the assay with Staphylococcus aureus [6], 4 µg/mL (≈ 16.8 µM).
